Results: patent US20070190181A1, “Methods of treating cancer with lipid-based platinum compound forumulations administered intravenously” (priority 2005, published 2007)

Key:
[1] = system: Lewis Lung cells; experiment: murine Lewis lung tumor metastasis model (lung tumor weight); format: in vivo, C57B1/6 mice
[2] = Pharmacokinetics and organ distribution of ip and iv injected L-CDDP and CDDP (platinum by ICP-MS); format: in vivo, ICR mice; conditions: 8 mg/kg
Procedure: Pharmacokinetics and organ distribution in animals of ip and iv injected lipid-based cisplatin and cisplatin (Part II). Sixty ICR mice (female, 7 weeks old) were divided into 4 groups. They received intraperitoneal or intravenous injection of L-CDDP or CDDP, separately. The dose was 12 mg/kg for ip L-CDDP and 8 mg/kg for the rest of treatment groups. At each designed time point, three to four mice were anaesthetized with 70 mg/kg of Nembutal ip (e.g., 3, 20, and 40 min, and 2, 8, 24, 48, and 72 h). […] Organs including liver, lung, and spleen were resected from the mice. The organ samples were homogenized in distilled water (4-fold of the sample weight) and digested with nitric acid. The platinum concentration in each sample was measured by Inductively Coupled Plasma-Mass Spectrometer (ICP-MS). The pharmacokinetics profiles (FIGS. 4, 5, and 6, all Y-axes are concentration of μg platinum in one gram of tissue or fluid per mg of injected dose) and parameters (Table 4) of each formulation were simulated and calculated.

[3] = Nephrotoxicity at MTD (BUN and kidney pathology grading); format: in vivo; conditions: four days after injection
Text: Nephrotoxicity. ICR mice, 7 weeks old, female, were divided into 4 groups with 3 to 4 mice in each. […] Four days after the injection, the mice were euthanized with Nembutal ip. The blood was drawn and the serum was isolated. The blood urea nitrogen (BUN) was quantitatively measured with a calorimetric method at Antech Diagnostics. Organs including duodenum, heart, kidney, liver, lung, and spleen were resected from the mice and fixed with 10% buffered Formalin. The fixed tissues were processed with standard procedure for H and E staining. A pathology expert Dr. Carman Tomos at the Memorial Sloan-Kettering Cancer Center examined kidney tissues and gave a toxicity grade to each kidney tissue sample. The grading was based on the general pathology guidelines for kidney toxicity.

SMILES: N.N.[Cl][Pt][Cl] [CDDP, cis diamminedichloroplatinum]
- inhibition of growth of Lewis lung tumors ([1]; inhalation therapy, nebulized 1 mg/ml, days 5, 8 and 11): did not significantly inhibit
- inhibition of tumor growth (Lewis lung tumor weight vs saline) ([1]; three iv doses of 2 mg/kg on days 5, 8 and 11 post tumor cell injection): no significant inhibition of tumor growth
- AUC ([2]; Liver): 19.96 µg·h/g/µg
- AUC ([2]; Lung): 5.58 µg·h/g/µg
- AUC ([2]; Spleen): 8.11 µg·h/g/µg
- increase of BUN level compared with normal controls ([3]; ip, p=0.04): 2.1 fold
- increase of BUN level compared with normal controls ([3]; iv, p=0.008): 6.8 fold
